Laboratory results from doi:10.1101/2025.05.09.652710v1 (bioRxiv, 2025).

Columns and labels:
TMPRSS2 = TMPRSS2 (Homo sapiens, UniProt O15393, Q253D/R252D/R255K/S251D/S254D); assay: Fluorogenic kinetic enzyme inhibitor assay, TMPRSS2; type: biochemical
matriptase = biological target: T1, matriptase (Homo sapiens, UniProt Q9Y5Y6); assay: Fluorogenic kinetic enzyme inhibitor assay, matriptase; type: biochemical
T1 sequence (Q9Y5Y6 615-855): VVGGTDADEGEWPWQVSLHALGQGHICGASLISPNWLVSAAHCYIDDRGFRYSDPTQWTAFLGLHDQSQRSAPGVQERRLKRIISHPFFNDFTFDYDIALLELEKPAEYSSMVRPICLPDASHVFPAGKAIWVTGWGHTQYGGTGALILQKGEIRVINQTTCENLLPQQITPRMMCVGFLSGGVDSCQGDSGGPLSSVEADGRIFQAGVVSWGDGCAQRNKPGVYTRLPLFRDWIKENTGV

hepsin = hepsin (Homo sapiens, UniProt P05981); assay: Fluorogenic kinetic enzyme inhibitor assay, hepsin; type: biochemical
HGFA = biological target: T2, HGFA (Homo sapiens, UniProt Q04756); assay: Fluorogenic kinetic enzyme inhibitor assay, HGFA; type: biochemical
T2 sequence (Q04756 373-655): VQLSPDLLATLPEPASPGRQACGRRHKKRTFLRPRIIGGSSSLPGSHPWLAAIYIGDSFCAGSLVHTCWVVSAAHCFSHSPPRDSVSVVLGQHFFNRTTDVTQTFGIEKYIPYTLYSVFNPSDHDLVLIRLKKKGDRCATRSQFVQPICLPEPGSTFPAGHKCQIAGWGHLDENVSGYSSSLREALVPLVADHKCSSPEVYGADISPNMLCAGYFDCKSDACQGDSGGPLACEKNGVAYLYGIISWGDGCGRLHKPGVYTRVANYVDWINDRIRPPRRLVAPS

thrombin = thrombin (Homo sapiens, UniProt P00734); assay: Chromogenic kinetic enzyme assay, thrombin; type: biochemical
Factor Xa = Factor Xa (Homo sapiens, UniProt P00742); assay: Chromogenic kinetic enzyme assay, Factor Xa; type: biochemical
[1] = tested on: chimeric VSV SARS-CoV-2 virus; settings: chimeric VSV virus
[2] = tested on: influenza A virus strain A/California/4/2009 (pdmH1N1); settings: for H1N1 titer Log fold reduction (1 μM): virus strain A/California/4/2009 (pdmH1N1, 72 h, 1 μM); for H1N1 titer Log fold reduction (10 μM): virus strain A/California/4/2009 (pdmH1N1, 72 h, 10 μM)

hepsin, sequence (P05981 163-417 limits assumed): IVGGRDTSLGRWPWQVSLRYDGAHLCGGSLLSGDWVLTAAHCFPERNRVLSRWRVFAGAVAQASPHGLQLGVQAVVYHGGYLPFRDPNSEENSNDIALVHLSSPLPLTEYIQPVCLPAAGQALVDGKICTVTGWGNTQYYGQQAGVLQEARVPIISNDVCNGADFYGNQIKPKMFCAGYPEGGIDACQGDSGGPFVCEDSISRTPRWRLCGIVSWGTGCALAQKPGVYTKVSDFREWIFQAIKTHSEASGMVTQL
hepsin, sequence (P05981 45-162 partner limits assumed): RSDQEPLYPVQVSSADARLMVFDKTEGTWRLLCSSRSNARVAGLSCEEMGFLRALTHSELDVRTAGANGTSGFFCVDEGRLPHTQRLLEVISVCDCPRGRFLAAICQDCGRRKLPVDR
Factor Xa, sequence (P00742 235-488 limits assumed): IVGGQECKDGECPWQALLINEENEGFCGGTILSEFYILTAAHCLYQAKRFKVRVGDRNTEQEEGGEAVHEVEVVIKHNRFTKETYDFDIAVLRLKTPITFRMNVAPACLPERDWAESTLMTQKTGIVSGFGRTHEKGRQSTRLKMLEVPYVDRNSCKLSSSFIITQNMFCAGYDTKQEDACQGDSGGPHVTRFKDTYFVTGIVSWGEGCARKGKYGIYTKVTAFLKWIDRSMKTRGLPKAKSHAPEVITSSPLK
Factor Xa, sequence (P00742 41-179 partner limits assumed): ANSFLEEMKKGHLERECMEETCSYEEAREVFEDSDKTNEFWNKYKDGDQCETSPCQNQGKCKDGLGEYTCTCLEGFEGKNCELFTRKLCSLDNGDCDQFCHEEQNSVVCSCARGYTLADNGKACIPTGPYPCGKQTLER
TMPRSS2, sequence (O15393 109-492 S251D/R252D/Q253D/S254D/R255K limits assumed): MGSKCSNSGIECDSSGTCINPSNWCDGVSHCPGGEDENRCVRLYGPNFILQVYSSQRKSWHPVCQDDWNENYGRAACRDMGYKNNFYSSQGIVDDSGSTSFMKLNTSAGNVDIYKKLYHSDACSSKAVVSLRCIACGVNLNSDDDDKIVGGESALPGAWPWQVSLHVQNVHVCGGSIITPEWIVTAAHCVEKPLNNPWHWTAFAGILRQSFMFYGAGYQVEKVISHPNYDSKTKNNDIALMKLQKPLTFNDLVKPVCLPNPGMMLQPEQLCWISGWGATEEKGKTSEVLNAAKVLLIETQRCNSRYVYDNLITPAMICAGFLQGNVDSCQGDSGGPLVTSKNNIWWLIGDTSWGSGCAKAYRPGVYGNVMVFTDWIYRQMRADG

CC[C@H](C)[C@H](NC(C)=O)C(=O)N[C@@H](CCC(N)=O)C(=O)N[C@@H](Cc1ccccc1)C(=O)N[C@@H](CCCNC(=N)N)C(=O)c1nc2ccccc2s1 [MM3116, Ac-IQFR-kbt]
IC50 (TMPRSS2): 1.7 nM
IC50 (matriptase): 0.92 nM
IC50 (hepsin): 0.14 nM
IC50 (HGFA): 30 nM
IC50 (thrombin): > 20000 nM
IC50 (Factor Xa): 792 nM
EC50 [1]: 3.6 nM

CC[C@H](C)[C@H](NC(C)=O)C(=O)N[C@@H](CCC(N)=O)C(=O)N[C@@H](CO)C(=O)N[C@@H](CCCNC(=N)N)C(=O)c1nc2ccccc2s1 [MM3177, Ac-IQSR-kbt]
IC50 (TMPRSS2): 4.5 nM
IC50 (matriptase): 1.3 nM
IC50 (hepsin): 2.4 nM
IC50 (HGFA): 19900 nM
IC50 (thrombin): > 20000 nM
IC50 (Factor Xa): 1730 nM
EC50 [1]: 36 nM

CC[C@H](C)[C@H](NC(C)=O)C(=O)N[C@@H](CCC(N)=O)C(=O)N[C@@H](C)C(=O)N[C@@H](CCCNC(=N)N)C(=O)c1nc2ccccc2s1 [MM3178, Ac-IQAR-kbt]
IC50 (TMPRSS2): 0.23 nM
IC50 (matriptase): 0.1 nM
IC50 (hepsin): 1.3 nM
IC50 (HGFA): > 20000 nM
IC50 (thrombin): > 20000 nM
IC50 (Factor Xa): 170 nM
EC50 [1]: 11 nM
H1N1 Fold inhibition @ 0.1 μM [2]: 2
H1N1 Fold inhibition @ 1 μM [2]: 91
H1N1 Fold inhibition @ 10 μM [2]: 238
H1N1 titer Log fold reduction (1 μM) [2]: 2.0
H1N1 titer Log fold reduction (10 μM) [2]: 2.4

CC[C@H](C)[C@H](NC(C)=O)C(=O)N[C@@H](CCC(N)=O)C(=O)N[C@H](C(=O)N[C@H](CCCNC(=N)N)C(=O)c1nc2ccccc2s1)C(C)C [MM3180-1, Ac-IQVdR-kbt]
IC50 (TMPRSS2): 2.89 nM
IC50 (matriptase): 22.9 nM
IC50 (hepsin): 1.72 nM
IC50 (HGFA): 14600 nM
IC50 (thrombin): > 20000 nM
IC50 (Factor Xa): > 20000 nM

CC[C@H](C)[C@H](NC(C)=O)C(=O)N[C@@H](CCC(N)=O)C(=O)N[C@H](C(=O)N[C@@H](CCCNC(=N)N)C(=O)c1nc2ccccc2s1)[C@@H](C)O [MM3186, Ac-IQTR-kbt]
IC50 (TMPRSS2): 0.17 nM
IC50 (matriptase): 16 nM
IC50 (hepsin): 0.98 nM
IC50 (HGFA): 18400 nM
IC50 (thrombin): > 20000 nM
IC50 (Factor Xa): > 20000 nM
EC50 [1]: 19 nM

CC[C@H](C)[C@H](NC(C)=O)C(=O)N[C@@H](CCC(N)=O)C(=O)N[C@@H](Cc1c[nH]c2ccccc12)C(=O)N[C@@H](CCCNC(=N)N)C(=O)c1nc2ccccc2s1 [MM3187, Ac-IQWR-kbt]
IC50 (TMPRSS2): 2.2 nM
IC50 (matriptase): 1.2 nM
IC50 (hepsin): 0.32 nM
IC50 (HGFA): 1450 nM
IC50 (thrombin): > 20000 nM
IC50 (Factor Xa): 129 nM
EC50 [1]: 22 nM

CC[C@H](C)[C@H](NC(C)=O)C(=O)N[C@H](Cc1c[nH]c2ccccc12)C(=O)N[C@@H](Cc1ccccc1)C(=O)N[C@@H](CCCNC(=N)N)C(=O)c1nc2ccccc2s1 [MM4038, Ac-IdWFR-kbt]
IC50 (TMPRSS2): 0.04 nM
IC50 (matriptase): 25 nM
IC50 (hepsin): 12 nM
IC50 (HGFA): 66 nM
IC50 (thrombin): > 20000 nM
EC50 [1]: 226 nM
H1N1 titer Log fold reduction (1 μM) [2]: 2.1
H1N1 titer Log fold reduction (10 μM) [2]: 3.0
